Measured values taken from ChEMBL document CHEMBL4368907 (J Med Chem, 2019).
Numbered stars: 1 amine (or outer) side, 2 acyl side, 3 side chain; on linkers, the order of the positions; unused ones are H or OH. Square brackets hold non-standard residues; d marks the D form. Side chains are listed from the residue outwards. Peptide text beside a SMILES is read from it. * marks the point of attachment. Phe(4-CH2SO3H) = N[C@@H](Cc1ccc(CS(=O)(=O)O)cc1)C(=O)O; sY = N[C@@H](Cc1ccc(OS(=O)(=O)O)cc1)C(=O)O; C18 diacid = O=C(O)CCCCCCCCCCCCCCCCC(=O)*; NMe1Nal = CN[C@@H](Cc1cccc2ccccc12)C(=O)O; γGlu = O=C(O)[C@H](CCC(=O)[*:2])N[*:1]; 1Nal = N[C@@H](Cc1cccc2ccccc12)C(=O)O; Glutaryl = O=C(CCCC(=O)[*:2])[*:1]; NMeF = CN[C@@H](Cc1ccccc1)C(=O)O; NMeD = CN[C@@H](CC(=O)O)C(=O)O; NH(2-Me-phenyl) = Cc1ccccc1N*; Nle = CCCC[C@H](N)C(=O)O; Dap = NC[C@H](N)C(=O)O; AEEA = NCCOCCOCC(=O)O; CO = O=C([*:1])[*:2]; βAla = NCCC(=O)O

Key:
[1] = molecular target: T1, Cholecystokinin receptor type A (Homo sapiens, UniProt P32238); experiment: Displacement of [125I]-CCK-8 from human CCK1R expressed in human 1321N1 cell membranes after 2 hrs by SPA assay
T1 sequence (P32238 whole entry): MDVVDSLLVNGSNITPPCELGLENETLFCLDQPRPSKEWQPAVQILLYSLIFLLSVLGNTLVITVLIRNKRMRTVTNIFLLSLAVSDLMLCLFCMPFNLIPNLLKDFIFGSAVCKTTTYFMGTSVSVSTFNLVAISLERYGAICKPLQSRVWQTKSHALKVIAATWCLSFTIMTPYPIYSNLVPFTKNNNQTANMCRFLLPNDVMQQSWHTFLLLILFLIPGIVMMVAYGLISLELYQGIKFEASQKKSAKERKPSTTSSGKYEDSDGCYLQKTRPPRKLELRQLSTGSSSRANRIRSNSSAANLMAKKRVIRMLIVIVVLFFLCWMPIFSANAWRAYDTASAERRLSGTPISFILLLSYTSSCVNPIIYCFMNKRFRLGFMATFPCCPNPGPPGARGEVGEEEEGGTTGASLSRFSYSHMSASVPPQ

[2] = molecular target: T2, Gastrin/cholecystokinin type B receptor (Homo sapiens, UniProt P32239); experiment: Displacement of [125I]-CCK-8 from human CCK2R expressed in human 1321N1 cell membranes after 2 hrs by SPA assay
T2 sequence (P32239 whole entry): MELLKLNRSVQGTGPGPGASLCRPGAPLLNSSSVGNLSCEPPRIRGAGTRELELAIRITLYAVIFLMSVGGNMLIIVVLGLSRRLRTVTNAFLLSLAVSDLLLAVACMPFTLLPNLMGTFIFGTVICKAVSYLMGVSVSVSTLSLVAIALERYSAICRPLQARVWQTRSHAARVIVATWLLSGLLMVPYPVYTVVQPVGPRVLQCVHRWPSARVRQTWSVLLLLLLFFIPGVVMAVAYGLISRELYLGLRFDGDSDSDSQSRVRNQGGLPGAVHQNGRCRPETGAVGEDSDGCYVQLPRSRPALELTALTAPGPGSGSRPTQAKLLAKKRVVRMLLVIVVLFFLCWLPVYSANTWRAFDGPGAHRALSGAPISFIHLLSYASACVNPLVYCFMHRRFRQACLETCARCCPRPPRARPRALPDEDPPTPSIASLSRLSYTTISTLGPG

[3] = molecular target: T1, Cholecystokinin receptor type A; experiment: Agonist activity at human CCK1R expressed in human 1321N1 cells assessed as IP1 accumulation after 1 hr by HTRF assay; format: functional, cell-based
[4] = molecular target: T2, Gastrin/cholecystokinin type B receptor; experiment: Agonist activity at human CCK2R expressed in human 1321N1 cells assessed as IP1 accumulation after 1 hr by HTRF assay; format: functional, cell-based

pIC50 [1] | pIC50 [2] | pEC50 [3] | pEC50 [4] | IC50 [1] | IC50 [2] | EC50 [3] | EC50 [4] | Structure (SMILES)
– | – | – | – | 832 nM | 5.75 nM | 229 nM | 0.38 nM | CCCC[C@H](NC(=O)[C@H](CNC(=O)CCCC(=O)O)NC(=O)[C@H](CC(=O)O)NC(=O)COCCOCCNC(=O)COCCOCCNC(=O)CC[C@H](NC(=O)CCCCCCCCCCCCCCCCC(=O)O)C(=O)O)C(=O)NCC(=O)N[C@@H](Cc1c[nH]c2ccccc12)C(=O)N[C@@H](CCCC)C(=O)N[C@@H](CC(=O)O)C(=O)N[C@@H](Cc1ccccc1)C(N)=O ({C18 diacid-γGlu-AEEA-AEEA}-D[Dap](Glutaryl)[Nle]GW[Nle]DF-NH2)
– | – | – | – | 0.245 nM | 0.891 nM | 0.0676 nM | 0.447 nM | CCCC[C@H](NC(=O)[C@H](Cc1c[nH]c2ccccc12)NC(=O)CNC(=O)[C@H](CC(C)C)NC(=O)[C@H](Cc1ccc(CS(=O)(=O)O)cc1)NC(=O)[C@H](CC(=O)O)NC(=O)COCCOCCNC(=O)COCCOCCNC(=O)CC[C@H](NC(=O)CCCCCCCCCCCCCCCCC(=O)O)C(=O)O)C(=O)N[C@@H](CC(=O)O)C(=O)N[C@@H](Cc1ccccc1)C(N)=O ({C18 diacid-γGlu-AEEA-AEEA}-D[Phe(4-CH2SO3H)]LGW[Nle]DF-NH2)
– | – | – | – | 1.26 nM | 0.158 nM | 0.166 nM | 0.295 nM | CCCC[C@H](NC(=O)[C@H](Cc1c[nH]c2ccccc12)NC(=O)CNC(=O)[C@H](CCC(=O)O)NC(=O)[C@H](Cc1ccc(OS(=O)(=O)O)cc1)NC(=O)[C@H](CC(=O)O)NC(=O)COCCOCCNC(=O)COCCOCCNC(=O)CC[C@H](NC(=O)CCCCCCCCCCCCCCCCC(=O)O)C(=O)O)C(=O)N[C@@H](CC(=O)O)C(=O)N[C@@H](Cc1ccccc1)C(N)=O ({C18 diacid-γGlu-AEEA-AEEA}-D[sY]EGW[Nle]DF-NH2)
7.39 | 5.27 | 6.61 | < 6 | – | – | – | – | CCCC[C@H](NC(=O)[C@H](Cc1c[nH]c2ccccc12)NC(=O)CNC(=O)[C@H](CC(C)C)NC(=O)[C@H](Cc1ccc(OS(=O)(=O)O)cc1)NC(=O)[C@H](CC(=O)O)NC(=O)COCCOCCNC(=O)COCCOCCNC(=O)CC[C@H](NC(=O)CCCCCCCCCCCCCCCCC(=O)O)C(=O)O)C(=O)N1CCC[C@H]1C(=O)N(C)[C@@H](Cc1ccccc1)C(N)=O ({C18 diacid-γGlu-AEEA-AEEA}-D[sY]LGW[Nle]P[NMeF]-NH2)
– | – | – | – | 219 nM | 0.398 nM | 117 nM | 0.316 nM | CCCC[C@H](NC(=O)[C@H](Cc1c[nH]c2ccccc12)NC(=O)CCNC(=O)[C@H](CC(C)C)NC(=O)[C@H](Cc1ccc(OS(=O)(=O)O)cc1)NC(=O)[C@H](CC(=O)O)NC(=O)COCCOCCNC(=O)COCCOCCNC(=O)CC[C@H](NC(=O)CCCCCCCCCCCCCCCCC(=O)O)C(=O)O)C(=O)N[C@@H](CC(=O)O)C(=O)N[C@@H](Cc1ccccc1)C(N)=O ({C18 diacid-γGlu-AEEA-AEEA}-D[sY]L[βAla]W[Nle]DF-NH2)
– | – | – | – | 3980 nM | 0.151 nM | > 1000 nM | 0.437 nM | CCCC[C@H](NC(=O)[C@H](Cc1c[nH]c2ccccc12)NC(=O)[C@H](CCC(=O)O)NC(=O)[C@H](CCCC)NC(=O)[C@H](Cc1ccc(OS(=O)(=O)O)cc1)NC(=O)[C@H](CC(=O)O)NC(=O)COCCOCCNC(=O)COCCOCCNC(=O)CC[C@H](NC(=O)CCCCCCCCCCCCCCCCC(=O)O)C(=O)O)C(=O)N[C@@H](CC(=O)O)C(=O)N[C@@H](Cc1ccccc1)C(N)=O ({C18 diacid-γGlu-AEEA-AEEA}-D[sY][Nle]EW[Nle]DF-NH2)
– | – | – | – | 0.794 nM | 2.14 nM | 0.11 nM | 0.631 nM | CCCC[C@H](NC(=O)[C@H](Cc1ccc(OS(=O)(=O)O)cc1)NC(=O)[C@H](CC(=O)O)NC(=O)COCCOCCNC(=O)COCCOCCNC(=O)CC[C@H](NC(=O)CCCCCCCCCCCCCCCCC(=O)O)C(=O)O)C(=O)NCC(=O)N[C@@H](Cc1c[nH]c2ccccc12)C(=O)N[C@H](C(=O)N[C@@H](CC(=O)O)C(=O)N[C@@H](Cc1ccccc1)C(N)=O)[C@@H](C)CC ({C18 diacid-γGlu-AEEA-AEEA}-D[sY][Nle]GWIDF-NH2)
– | – | – | – | 0.933 nM | 2.04 nM | 0.162 nM | 0.417 nM | CCCC[C@H](NC(=O)[C@H](Cc1ccc(OS(=O)(=O)O)cc1)NC(=O)[C@H](CC(=O)O)NC(=O)COCCOCCNC(=O)COCCOCCNC(=O)CC[C@H](NC(=O)CCCCCCCCCCCCCCCCC(=O)O)C(=O)O)C(=O)NCC(=O)N[C@@H](Cc1c[nH]c2ccccc12)C(=O)N[C@@H](CCC(N)=O)C(=O)N[C@@H](CC(=O)O)C(=O)N[C@@H](Cc1ccccc1)C(N)=O ({C18 diacid-γGlu-AEEA-AEEA}-D[sY][Nle]GWQDF-NH2)

The remaining lines, values behind:

Structure (SMILES) | pIC50 [1] | pIC50 [2] | pEC50 [3] | pEC50 [4] | IC50 [1] | IC50 [2] | EC50 [3] | EC50 [4]
CCCC[C@H](NC(=O)[C@H](Cc1c[nH]c2ccccc12)NC(=O)CNC(=O)[C@H](CC(C)C)NC(=O)[C@H](Cc1c[nH]c2ccccc12)NC(=O)[C@H](CC(=O)O)NC(=O)COCCOCCNC(=O)COCCOCCNC(=O)CC[C@H](NC(=O)CCCCCCCCCCCCCCCCC(=O)O)C(=O)O)C(=O)N(C)[C@@H](CC(=O)O)C(=O)N(C)[C@@H](Cc1ccccc1)C(N)=O ({C18 diacid-γGlu-AEEA-AEEA}-DWLGW[Nle][NMeD][NMeF]-NH2) | 8.57 | 5.13 | 9.67 | < 6 | – | – | – | –
CC(C)C[C@H](NC(=O)[C@H](Cc1ccc(OS(=O)(=O)O)cc1)NC(=O)[C@H](CC(=O)O)NC(=O)COCCOCCNC(=O)COCCOCCNC(=O)CC[C@H](NC(=O)CCCCCCCCCCCCCCCCC(=O)O)C(=O)O)C(=O)NCC(=O)N[C@@H](Cc1c[nH]c2ccccc12)C(=O)N[C@@H](Cc1ccccc1)C(=O)N(C)[C@@H](CC(=O)O)C(=O)N(C)[C@@H](Cc1ccccc1)C(N)=O ({C18 diacid-γGlu-AEEA-AEEA}-D[sY]LGWF[NMeD][NMeF]-NH2) | 7.79 | < 5 | 8.79 | < 6 | – | – | – | –
CCCC[C@H](NC(=O)[C@H](Cc1c[nH]c2ccccc12)NC(=O)CNC(=O)[C@H](CC(C)C)NC(=O)[C@H](Cc1ccc(OS(=O)(=O)O)cc1)NC(=O)[C@H](CC(=O)O)NC(=O)COCCOCCNC(=O)COCCOCCNC(=O)CC[C@H](NC(=O)CCCCCCCCCCCCCCCCC(=O)O)C(=O)O)C(=O)N(C)[C@@H](CC(=O)O)C(=O)N(C)[C@@H](Cc1cccc2ccccc12)C(N)=O ({C18 diacid-γGlu-AEEA-AEEA}-D[sY]LGW[Nle][NMeD][NMe1Nal]-NH2) | – | – | – | – | 0.115 nM | 603 nM | 0.501 nM | 16.6 nM
CCCC[C@H](NC(=O)[C@H](Cc1ccc(OS(=O)(=O)O)cc1)NC(=O)[C@H](CC(=O)O)NC(=O)COCCOCCNC(=O)COCCOCCNC(=O)CC[C@H](NC(=O)CCCCCCCCCCCCCCCCC(=O)O)C(=O)O)C(=O)NCC(=O)N[C@@H](Cc1c[nH]c2ccccc12)C(=O)N[C@@H](CCCCNC(=O)Nc1ccccc1C)C(=O)N(C)[C@@H](CC(=O)O)C(=O)N(C)[C@@H](Cc1ccccc1)C(N)=O ({C18 diacid-γGlu-AEEA-AEEA}-D[sY][Nle]GWK([CO-NH(2-Me-phenyl)])[NMeD][NMeF]-NH2) | – | – | – | – | 0.479 nM | > 10000 nM | 0.115 nM | > 1000 nM
CCCC[C@H](NC(=O)[C@H](Cc1ccc(OS(=O)(=O)O)cc1)NC(=O)[C@H](CC(=O)O)NC(=O)COCCOCCNC(=O)COCCOCCNC(=O)CC[C@H](NC(=O)CCCCCCCCCCCCCCCCC(=O)O)C(=O)O)C(=O)NCC(=O)N[C@@H](Cc1c[nH]c2ccccc12)C(=O)N[C@@H](CCCC)C(=O)N[C@@H](CC(=O)O)C(=O)N[C@@H](Cc1c[nH]c2ccccc12)C(N)=O ({C18 diacid-γGlu-AEEA-AEEA}-D[sY][Nle]GW[Nle]DW-NH2) | – | – | – | – | 2.24 nM | 0.132 nM | 0.324 nM | 0.417 nM
CCCC[C@H](NC(=O)[C@H](Cc1ccc(OS(=O)(=O)O)cc1)NC(=O)[C@H](CC(=O)O)NC(=O)COCCOCCNC(=O)COCCOCCNC(=O)CC[C@H](NC(=O)CCCCCCCCCCCCCCCCC(=O)O)C(=O)O)C(=O)NCC(=O)N[C@@H](Cc1c[nH]c2ccccc12)C(=O)N[C@@H](CCCC)C(=O)N[C@@H](CC(=O)O)C(=O)N[C@@H](Cc1ccc(O)cc1)C(N)=O ({C18 diacid-γGlu-AEEA-AEEA}-D[sY][Nle]GW[Nle]DY-NH2) | – | – | – | – | 9.12 nM | 0.132 nM | 0.977 nM | 0.324 nM
CCCC[C@H](NC(=O)[C@H](Cc1ccc(OS(=O)(=O)O)cc1)NC(=O)[C@H](CC(=O)O)NC(=O)COCCOCCNC(=O)COCCOCCNC(=O)CC[C@H](NC(=O)CCCCCCCCCCCCCCCCC(=O)O)C(=O)O)C(=O)NCC(=O)N[C@@H](Cc1c[nH]c2ccccc12)C(=O)N[C@@H](CCCC)C(=O)N[C@@H](CC(=O)O)C(=O)N[C@@H](Cc1cccc2ccccc12)C(N)=O ({C18 diacid-γGlu-AEEA-AEEA}-D[sY][Nle]GW[Nle]D[1Nal]-NH2) | – | – | – | – | 0.0759 nM | 0.0933 nM | 0.162 nM | 0.407 nM
